Measurements taken from US11091434B2, “Type III deiodinase inhibitors and uses thereof” (HADASIT MEDICAL RESEARCH SERVICES AND DEVELOPMENT LTD., priority 2014, dated 2021).
Entries after “also recorded” stand apart in the source; their conditions may differ.

Experiments:
[1] = Deiodination assay: deiodination of T4 by DIO3 mimic compound A; assay type: biochemical; conditions: for inhibition of the deiodinase activity (deiodination of T4) of DIO3 mimic compound A: 100 mM phosphate buffer pH 7.5, 10 mM DTT, 37° C., rT3 formation by HPLC; for IC50 for inhibiting the DIO3 mimic: mimic used in micromolar concentrations, FIG. 5
Experimental: The deiodination of thyroxine by compound A (a DIO3 mimetic; FIGS. 2 and 3) in the presence of various thiourea derivatives was studied. When the commonly used antithyroid drugs such as thiourea derivatives (e.g., 6-n-propyl-2-thiouracil (PTU), 6-methyl-2-thiouracil (MTU) and 1-methyl-3H-imidazole-2-thione or methimazole (MMI)) were used, no inhibition of the deiodinase activity was observed.
The deiodination reactions were carried out in 100 mM phosphate buffer (pH 7.5) with 10 mM dithiothreitol (DTT) at 37° C. Diselenol (Compound A) was freshly prepared by reducing the corresponding diselenide, with NaBH4 prior to use. The reaction products were analyzed by reverse-phase HPLC (Lichrospher C18 column, 4.6 μm, 150 mm×5 mm) with gradient elution using acetonitrile/ammonium acetate (pH 4.0) as the mobile phase. The formation of rT3 was monitored at λ=275 nm and the amounts of deiodinated products formed in the reactions in the presence or absence of test compounds were calculated by comparing the peak areas.

DIO1 = target: T1, DIO1 (Homo sapiens, UniProt P49895); conditions: cited from earlier work
T1 sequence (P49895 1-249): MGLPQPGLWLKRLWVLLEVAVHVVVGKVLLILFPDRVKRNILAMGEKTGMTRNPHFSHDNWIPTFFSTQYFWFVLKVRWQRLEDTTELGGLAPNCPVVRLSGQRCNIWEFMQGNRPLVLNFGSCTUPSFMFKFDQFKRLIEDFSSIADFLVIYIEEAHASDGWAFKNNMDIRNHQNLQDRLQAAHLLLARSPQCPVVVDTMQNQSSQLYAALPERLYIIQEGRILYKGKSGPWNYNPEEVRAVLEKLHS

DIO3 = target: T2, DIO3 (Homo sapiens, UniProt P55073); conditions: cited from earlier work
T2 sequence (P55073 1-304): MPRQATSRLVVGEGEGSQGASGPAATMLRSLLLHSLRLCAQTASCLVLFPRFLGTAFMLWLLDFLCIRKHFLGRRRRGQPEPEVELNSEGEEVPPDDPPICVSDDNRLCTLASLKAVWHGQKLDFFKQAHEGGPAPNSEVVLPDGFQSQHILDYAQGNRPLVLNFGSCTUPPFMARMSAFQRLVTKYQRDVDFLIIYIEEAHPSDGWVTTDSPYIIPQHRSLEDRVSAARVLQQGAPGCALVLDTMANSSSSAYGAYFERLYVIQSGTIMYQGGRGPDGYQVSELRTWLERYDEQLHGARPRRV

OVCAR3 cells [2] = test: OVCAR3 cell viability by WST-1 assay; assay type: cell-based, Human; conditions: OVCAR3, 0.5 μM, 48 h
Experimental: (§1) Cell lines: Human ovarian adenocarcinoma cells employed in the study were OVCAR-3 (ATCC HTB-161), A2780 (Sigma Aldrich) and SKOV-3 (ATCC HTB-77). Human normal embryonic kidney cells, HEK 293 (ATCC CRL1573) were used. All cells were cultured in RPMI1640 supplemented with 10% heat-inactivated FBS and antibiotics. Before conducting an experiment, cells were cultured for 24 h in RPMI1640 supplemented with 1.5% heat-inactivated charcoal stripped FBS and antibiotics.
Viability: WST-1 (Roche; 10% final concentration) was incubated with cells at 37° C. for 2 h and read with a MicroELISA reader at 440 nm.
(§2) OVCAR3 cells were collected and seeded in 96 well plates (10,000/well). The six compounds were then dissolved in DMSO and added to a final 0.5 μM concentration for 48 h of incubation. After incubation the cells were imaged by light microscopy (FIG. 13B). […] These cells were then examined for cell viability by WST-1 assay (FIG. 13C).

DIO2 = DIO2 (Homo sapiens, UniProt Q92813); conditions: cited from earlier work
DIO2, sequence (Q92813 whole entry, species assumed): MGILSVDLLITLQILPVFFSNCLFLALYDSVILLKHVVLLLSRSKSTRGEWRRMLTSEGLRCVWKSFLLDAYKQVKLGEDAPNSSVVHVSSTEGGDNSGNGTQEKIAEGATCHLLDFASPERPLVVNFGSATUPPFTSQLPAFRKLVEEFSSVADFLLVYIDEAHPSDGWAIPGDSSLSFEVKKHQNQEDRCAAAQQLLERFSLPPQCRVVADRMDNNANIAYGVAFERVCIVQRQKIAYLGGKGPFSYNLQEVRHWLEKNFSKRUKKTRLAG

[3] = Water solubility (qualitative comparison); assay type: physicochemical; conditions: compared with PBENZ (compound 4)
[4] = Serum and brain thyroid hormone levels after 3 weeks ICV administration by osmotic minipumps; assay type: in vivo, BALB/c mice; conditions: mice; for change in brain free T3 levels (in words): one sided non-paired t test; for Serum Free T3, Mean / Serum Free T4, Mean / Brain Free T3, Mean / Brain Free T4, Mean: ICV by osmotic minipump for 3 weeks, IOP 2 mg/kg, ITYR 5 mg/kg; for Serum Free T3, Mean: vehicle 14.45; for Serum Free T4, Mean: vehicle 36.05; for Brain Free T3, Mean: vehicle 72.74; for Brain Free T4, Mean: vehicle 250.54
Experimental: Deaths were related to the surgical procedure.
At the end of the tests, animals were anesthetized with veterinary Pental (13.333 mg/kg) and cardiac blood was drawn for peripheral T3 (triiodothyronine) and T4 (thyroxine) levels. Brains were harvested for evaluating brain T3, T4 levels. Hormone levels in the sera and brains were measured by SunLong Biotech Mouse Ultrasensitivity total and free T3 and T4 ELISA Kits, employing producing a standard curve followed by actual measurement, in which OD levels obtained by spectrophotometer were converted, using the standard curve, to pg/ml values.

OVCAR3 cells [5] = test: OVCAR3 cell density and morphology by light microscopy; assay type: cell-based, Human; conditions: OVCAR3, 0.5 μM, 48 h
Experimental: as §1
Microscopy: The cells were visualized using a microscope equipped with a camera (model IX71; Olympus) with a 20_/0.50 objective lens and Cell^A (version 3.1) Olympus software imaging.
as §2

[6] = Novelty suppressed feeding test (NSFT) after 3 weeks ICV administration; conditions: mice, ICV 3 weeks, compared to vehicle; ANCOVA with brain T3 as covariate
Experimental: The intra-cerebroventricular injection was performed via a cannula inserted as follows: first, for the chronic administration of compounds or vehicle, osmotic minipumps (Alzet model 1004 for up to 28 days administration) were employed. Empty minipumps were filled under sterile conditions with 0.1 ml of PBS or with PBS containing either one of the DIO3 inhibitors and then connected to brain infusion kits. The filled minipumps connected to the brain infusion kits were than primed in an incubator at 37° C. before being implanted into the animals. At the surgery itself, each mouse was anaesthetized by intraparenteral (i.p.) injection of anesthesia. The anesthesia solution was prepared as follows: for each 2 ml of solution, 900 μl ketamine plus 100 μl xylazine 2% was supplemented with 1000 μl of 0.9% NaCl saline solution. 70 μl of the anesthesia solution was administered i.p to a 20 gram (about 100 μl for 30 gram) weighing animal. […]
After the last treatment administration, all food was removed from the cage for 24 hours (water was available ad libitum). […] Time elapsing from the introduction of the animal into the arena until it commences eating (latency to feed), total distance move, velocity and time spent in the arena periphery (lateral 10 cm on each side) and center were recorded. […] The mean of the two ratings was calculated and used for the statistical analysis.

SMILES: Cc1cc(=O)[nH]c(=S)[nH]1 [MTU, 6-methyl-2-thiouracil]
- inhibition of the deiodinase activity (deiodination of T4) of DIO3 mimic compound A [1]: no inhibition
- inhibition of DIO1 (DIO1): inhibit
- inhibition of DIO3 (DIO3): do not inhibit

SMILES: O=C(O)c1ccc(N2C(=O)C(Br)=C(Br)C2=O)cc1 [Compound 4]
- reaction with the DIO3 mimic [1]: react stoichiometrically
- IC50 for inhibiting the DIO3 mimic [1]: micromolar range
- cell viability (OVCAR3 cells [2]): No effect

SMILES: O=C(O)CI [IAA, iodoacetic acid]
- inhibition of DIO1 (DIO1): inhibitor
- inhibition of DIO3 (DIO3): cannot inhibit
- inhibition of DIO2 (DIO2): cannot inhibit

SMILES: CN1C(=O)C(Br)=C(Br)C1=O [Compound C, 2,3-dibromo-N-methylmaleimide]
- inhibition of the deiodinase activity (deiodination of T4) of DIO3 mimic compound A [1]: inhibit; also recorded: Inhibition

SMILES: CCCc1cc(=O)[nH]c(=S)[nH]1 [PTU, 6-n-propyl-2-thiouracil]
- inhibition of the deiodinase activity (deiodination of T4) of DIO3 mimic compound A [1]: no inhibition
- inhibition of DIO1 (DIO1): inhibit
- inhibition of DIO3 (DIO3): do not inhibit

SMILES: O=C1C(Br)=C(Br)C(=O)N1Cc1ccccc1 [B, 2,3-dibromo-N-benzylmaleimide]
- inhibition of the deiodinase activity (deiodination of T4) of DIO3 mimic compound A [1]: inhibit

SMILES: Cn1cc[nH]c1=S [MMI, 1-methyl-3H-imidazole-2-thione, reference compound]
- inhibition of the deiodinase activity (deiodination of T4) of DIO3 mimic compound A [1]: no inhibition

SMILES: O=C(O)C(Cc1ccc(O)cc1)N1C(=O)C(Br)=C(Br)C1=O (stereo not shown) [Compound 3]
- reaction with the DIO3 mimic [1]: react stoichiometrically
- inhibition of the deiodinase activity (deiodination of T4) of DIO3 mimic compound A [1]: Inhibition
- IC50 for inhibiting the DIO3 mimic [1]: micromolar range
- cell viability (OVCAR3 cells [2]): low reduction in viability
- solubility in water [3]: more soluble in water

SMILES: O=C(O)C(Cc1cc(I)c(O)c(I)c1)N1C(=O)C(Br)=C(Br)C1=O (stereo not shown) [Compound 5]
- change in brain free T3 levels (in words) ([4]; ICV 3 weeks, vs. vehicle): not significantly increased
- Serum Free T3, Mean [4]: 12.33 pg/mL
- Serum Free T4, Mean [4]: 37.00 ng/mL
- Brain Free T3, Mean [4]: 81.98 pg/mL
- Brain Free T4, Mean [4]: 262.86 ng/mL
- cell density and cell morphology (OVCAR3 cells [5]): marked reduction in cell density and deformed cell morphology
- cell viability (OVCAR3 cells [2]): significant reduction in cell viability
- latency to feed in the novelty suppressed feeding test [6]: reduced latency to feed

SMILES: CCC(Cc1c(I)cc(I)c(N2C(=O)C(Br)=C(Br)C2=O)c1I)C(=O)O (stereo not shown) [Compound 6]
- increase in brain free T3 levels ([4]; ICV 3 weeks, vs. vehicle): about 46%
- change in brain free T3 levels (in words) ([4]; ICV 3 weeks, vs. vehicle): significant increase
- Serum Free T3, Mean [4]: 12.23 pg/mL
- Serum Free T4, Mean [4]: 35.75 ng/mL
- Brain Free T3, Mean [4]: 84.30 pg/mL
- Brain Free T4, Mean [4]: 244.11 ng/mL
- cell viability (OVCAR3 cells [2]): low reduction in viability
- latency to feed in the novelty suppressed feeding test [6]: reduced latency to feed

SMILES: O=C1C(Br)=C(Br)C(=O)N1CCc1ccc(O)c(O)c1 [Compound 7]
- cell density and cell morphology (OVCAR3 cells [5]): marked reduction in cell density and deformed cell morphology
- cell viability (OVCAR3 cells [2]): significant reduction in cell viability

SMILES: O=C(O)CC(C(=O)O)N1C(=O)C(Br)=C(Br)C1=O (stereo not shown) [Compound 8]
- cell density and cell morphology (OVCAR3 cells [5]): marked reduction in cell density and deformed cell morphology
- cell viability (OVCAR3 cells [2]): significant reduction in cell viability
